# Assay results reported in ChEMBL document CHEMBL1201862, “PubChem BioAssay data set” (2004).
# Values joined by “and” are separate entries in the source; they are usually repeats but may differ in a detail not shown here. Identical values can stand only once. Active and inactive are the calls of the source.
# Legend:
# LIM domain kinase 1 = LIM domain kinase 1 (Homo sapiens, UniProt P53667); assay: Navigating the Kinome. Panel member name: LIMK1; type: functional
# [1] = molecular target: Glycogen synthase kinase-3 alpha (Homo sapiens, UniProt P49840); type: functional;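 further: GSK3A result taken from a broad kinome-wide kinase panel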
# [2] = molecular target: Casein kinase I isoform gamma-1 (Homo sapiens, UniProt Q9HCP0); type: functional;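 further: measured as the CSNK1G1 member of a kinome profiling panel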
# Chain of Casein kinase I isoform gamma-1 (Q9HCP0 whole entry, canonical isoform): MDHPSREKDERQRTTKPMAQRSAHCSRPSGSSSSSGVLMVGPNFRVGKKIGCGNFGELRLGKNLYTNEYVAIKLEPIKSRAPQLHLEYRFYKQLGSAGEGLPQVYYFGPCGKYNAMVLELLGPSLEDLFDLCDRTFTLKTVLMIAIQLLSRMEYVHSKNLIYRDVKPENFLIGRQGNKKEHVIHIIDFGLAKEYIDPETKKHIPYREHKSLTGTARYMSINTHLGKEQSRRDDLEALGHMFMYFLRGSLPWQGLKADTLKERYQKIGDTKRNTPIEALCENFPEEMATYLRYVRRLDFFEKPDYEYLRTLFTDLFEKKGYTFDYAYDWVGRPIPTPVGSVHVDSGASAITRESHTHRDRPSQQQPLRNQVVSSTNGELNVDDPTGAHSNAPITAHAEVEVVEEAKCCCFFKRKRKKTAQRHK
# [3] = molecular target: High affinity nerve growth factor receptor (Homo sapiens, UniProt P04629); type: functional;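 further: NTRK1 tested as one member of a kinome-wide profiling panel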
# [4] = molecular target: MAP/microtubule affinity-regulating kinase 3 (Homo sapiens, UniProt P27448); type: functional;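 further: MARK3 affinity measured as one member of a kinome panel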
# [5] = molecular target: Cyclin-dependent kinase 2 (Homo sapiens, UniProt P24941); type: functional;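 further: CDK2 measured as one member of a broad kinome profiling panel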
# [6] = molecular target: Dual specificity tyrosine-phosphorylation-regulated kinase 3 (Homo sapiens, UniProt O43781); type: functional;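 further: measured as one member of a broad kinase panel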
# [7] = molecular target: Serine/threonine-protein kinase DCLK1 (Homo sapiens, UniProt O15075); type: functional;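 further: affinity for DCLK1 (listed as DCAMKL1) measured as one member of a kinome-wide kinase profiling panel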
# [8] = molecular target: Serine/threonine-protein kinase Chk2 (Homo sapiens, UniProt O96017); type: functional;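 further: CHEK2 entry within a kinome-wide screening panel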
# Chain of Serine/threonine-protein kinase Chk2 (O96017 whole entry): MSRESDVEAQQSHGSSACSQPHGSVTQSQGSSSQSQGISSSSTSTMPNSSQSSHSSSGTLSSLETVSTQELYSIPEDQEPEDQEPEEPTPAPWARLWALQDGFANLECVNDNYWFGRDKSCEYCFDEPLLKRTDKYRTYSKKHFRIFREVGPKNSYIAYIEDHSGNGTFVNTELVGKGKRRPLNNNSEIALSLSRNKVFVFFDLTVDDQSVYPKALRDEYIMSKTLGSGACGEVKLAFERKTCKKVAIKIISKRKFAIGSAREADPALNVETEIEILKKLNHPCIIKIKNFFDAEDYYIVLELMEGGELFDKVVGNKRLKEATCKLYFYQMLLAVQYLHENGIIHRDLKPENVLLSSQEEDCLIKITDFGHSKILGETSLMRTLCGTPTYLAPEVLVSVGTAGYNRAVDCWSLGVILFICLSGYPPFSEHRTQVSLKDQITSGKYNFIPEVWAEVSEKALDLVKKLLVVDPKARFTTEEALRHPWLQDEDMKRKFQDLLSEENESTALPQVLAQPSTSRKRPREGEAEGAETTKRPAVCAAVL
# [9] = molecular target: Protein kinase C gamma type (Homo sapiens, UniProt P05129); type: functional
# [10] = molecular target: Tyrosine-protein kinase receptor TYRO3 (Homo sapiens, UniProt Q06418); type: functional;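 further: TYRO3 value obtained as one member of a kinome-wide profiling panel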
# [11] = molecular target: Serine/threonine-protein kinase 17A (Homo sapiens, UniProt Q9UEE5); type: functional
# [12] = molecular target: RAC-gamma serine/threonine-protein kinase (Homo sapiens, UniProt Q9Y243); type: functional
# Misshapen-like kinase 1 = Misshapen-like kinase 1 (Homo sapiens, UniProt Q8N4C8); type: functional;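 further: kinome panel screen with MINK as the panel member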
# [13] = molecular target: Protein kinase C iota type (Homo sapiens, UniProt P41743); type: functional;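 further: measured within a kinome-wide kinase panel, PRKCI as panel member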
# [14] = molecular target: Tyrosine-protein kinase JAK2 (Homo sapiens, UniProt O60674); type: functional;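 further: JAK2 tested as one member of a kinase panel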
# [15] = molecular target: Cyclin-dependent kinase 19 (Homo sapiens, UniProt Q9BWU1); assay: Navigating the Kinome. Panel member name: CDC2L6; type: functional
# Chain of Cyclin-dependent kinase 19 (Q9BWU1 whole entry): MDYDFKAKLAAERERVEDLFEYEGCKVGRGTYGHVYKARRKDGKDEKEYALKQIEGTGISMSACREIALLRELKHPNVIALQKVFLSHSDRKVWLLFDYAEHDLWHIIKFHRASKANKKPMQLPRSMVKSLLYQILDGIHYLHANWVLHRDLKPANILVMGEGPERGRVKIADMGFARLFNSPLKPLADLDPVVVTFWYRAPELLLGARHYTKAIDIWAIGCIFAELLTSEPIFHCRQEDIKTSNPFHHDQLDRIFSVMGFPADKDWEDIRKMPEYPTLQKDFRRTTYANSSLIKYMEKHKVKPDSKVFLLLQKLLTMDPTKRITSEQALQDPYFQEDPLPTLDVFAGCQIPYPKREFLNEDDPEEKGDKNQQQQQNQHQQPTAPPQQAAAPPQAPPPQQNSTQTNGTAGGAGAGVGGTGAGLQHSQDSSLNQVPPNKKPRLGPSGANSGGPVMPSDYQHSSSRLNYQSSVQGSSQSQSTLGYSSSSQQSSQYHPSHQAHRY
# [16] = molecular target: Tyrosine-protein kinase Lyn (Homo sapiens, UniProt P07948); type: functional;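 further: lyn as one member of a kinase panel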
# [17] = molecular target: Protein-tyrosine kinase 2-beta (Homo sapiens, UniProt Q14289); type: functional
# Chain of Protein-tyrosine kinase 2-beta (Q14289 whole entry): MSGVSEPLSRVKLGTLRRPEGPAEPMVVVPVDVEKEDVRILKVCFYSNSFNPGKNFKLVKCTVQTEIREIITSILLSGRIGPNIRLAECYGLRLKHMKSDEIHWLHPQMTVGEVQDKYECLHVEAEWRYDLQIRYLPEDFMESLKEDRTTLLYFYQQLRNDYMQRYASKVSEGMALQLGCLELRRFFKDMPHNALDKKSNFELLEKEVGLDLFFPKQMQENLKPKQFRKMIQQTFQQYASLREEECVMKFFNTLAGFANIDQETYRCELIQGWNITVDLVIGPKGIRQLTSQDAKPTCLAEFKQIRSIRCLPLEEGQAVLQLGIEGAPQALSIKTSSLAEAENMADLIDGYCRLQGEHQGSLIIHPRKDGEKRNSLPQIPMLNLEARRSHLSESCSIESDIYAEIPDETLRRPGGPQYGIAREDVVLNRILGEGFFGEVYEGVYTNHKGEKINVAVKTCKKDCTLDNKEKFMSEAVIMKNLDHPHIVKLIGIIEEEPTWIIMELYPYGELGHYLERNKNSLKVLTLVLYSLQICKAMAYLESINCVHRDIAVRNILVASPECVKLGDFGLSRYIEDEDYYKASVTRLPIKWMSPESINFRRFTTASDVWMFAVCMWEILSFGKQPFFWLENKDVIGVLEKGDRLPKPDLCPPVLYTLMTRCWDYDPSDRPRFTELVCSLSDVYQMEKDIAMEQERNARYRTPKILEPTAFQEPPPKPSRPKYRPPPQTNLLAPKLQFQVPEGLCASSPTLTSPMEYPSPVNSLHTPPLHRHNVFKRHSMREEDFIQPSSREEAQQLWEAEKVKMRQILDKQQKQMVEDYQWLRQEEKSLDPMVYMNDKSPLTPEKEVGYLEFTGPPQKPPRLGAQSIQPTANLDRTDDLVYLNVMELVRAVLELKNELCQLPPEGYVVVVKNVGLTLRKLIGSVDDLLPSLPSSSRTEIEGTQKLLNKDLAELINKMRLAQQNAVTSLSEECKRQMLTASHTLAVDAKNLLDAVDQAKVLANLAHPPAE
# [18] = molecular target: Megakaryocyte-associated tyrosine-protein kinase (Homo sapiens, UniProt P42679); type: functional;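 further: affinity measured as one member of a kinase panel (Navigating the Kinome) against MATK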
# Focal adhesion kinase 1 = Focal adhesion kinase 1 (Homo sapiens, UniProt Q05397); type: functional;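 further: measured as one member of a kinome panel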
# [19] = molecular target: Serine/threonine-protein kinase Nek2 (Homo sapiens, UniProt P51955); type: functional
# Chain of Serine/threonine-protein kinase Nek2 (P51955 whole entry): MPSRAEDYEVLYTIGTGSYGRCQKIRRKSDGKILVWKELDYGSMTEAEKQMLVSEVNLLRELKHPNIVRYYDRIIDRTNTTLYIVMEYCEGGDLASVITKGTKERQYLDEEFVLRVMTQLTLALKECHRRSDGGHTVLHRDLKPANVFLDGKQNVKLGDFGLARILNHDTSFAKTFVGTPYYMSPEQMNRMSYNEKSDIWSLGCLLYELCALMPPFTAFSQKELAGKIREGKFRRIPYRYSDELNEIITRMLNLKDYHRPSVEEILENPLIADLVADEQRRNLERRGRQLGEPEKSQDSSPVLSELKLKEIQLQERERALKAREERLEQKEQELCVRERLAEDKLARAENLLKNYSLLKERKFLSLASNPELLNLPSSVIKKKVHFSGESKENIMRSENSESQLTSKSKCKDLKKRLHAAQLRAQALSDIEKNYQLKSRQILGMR
# [20] = molecular target: Vascular endothelial growth factor receptor 1 (Homo sapiens, UniProt P17948); type: functional;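 further: measured within a kinome-wide profiling panel, FLT1 as the panel member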
# [21] = molecular target: 5'-AMP-activated protein kinase catalytic subunit alpha-1 (Homo sapiens, UniProt Q13131); type: functional
# [22] = molecular target: BDNF/NT-3 growth factors receptor (Homo sapiens, UniProt Q16620); type: functional;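 further: NTRK2 measured as one member of a broad kinome-wide kinase profiling panel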
# [23] = molecular target: SWI/SNF-related matrix-associated actin-dependent regulator of chromatin subfamily A member 2 (Homo sapiens, UniProt P51531); assay: Luminescence-based cell-based high throughput dose response assay to identify activators of the function of SWI/SNF related, matrix associated, actin dependent regulator of chromatin, subfamily a, member 2 (SMARCA2, BRM).; type: functional
# Chain of SWI/SNF-related matrix-associated actin-dependent regulator of chromatin subfamily A member 2 (P51531 whole entry): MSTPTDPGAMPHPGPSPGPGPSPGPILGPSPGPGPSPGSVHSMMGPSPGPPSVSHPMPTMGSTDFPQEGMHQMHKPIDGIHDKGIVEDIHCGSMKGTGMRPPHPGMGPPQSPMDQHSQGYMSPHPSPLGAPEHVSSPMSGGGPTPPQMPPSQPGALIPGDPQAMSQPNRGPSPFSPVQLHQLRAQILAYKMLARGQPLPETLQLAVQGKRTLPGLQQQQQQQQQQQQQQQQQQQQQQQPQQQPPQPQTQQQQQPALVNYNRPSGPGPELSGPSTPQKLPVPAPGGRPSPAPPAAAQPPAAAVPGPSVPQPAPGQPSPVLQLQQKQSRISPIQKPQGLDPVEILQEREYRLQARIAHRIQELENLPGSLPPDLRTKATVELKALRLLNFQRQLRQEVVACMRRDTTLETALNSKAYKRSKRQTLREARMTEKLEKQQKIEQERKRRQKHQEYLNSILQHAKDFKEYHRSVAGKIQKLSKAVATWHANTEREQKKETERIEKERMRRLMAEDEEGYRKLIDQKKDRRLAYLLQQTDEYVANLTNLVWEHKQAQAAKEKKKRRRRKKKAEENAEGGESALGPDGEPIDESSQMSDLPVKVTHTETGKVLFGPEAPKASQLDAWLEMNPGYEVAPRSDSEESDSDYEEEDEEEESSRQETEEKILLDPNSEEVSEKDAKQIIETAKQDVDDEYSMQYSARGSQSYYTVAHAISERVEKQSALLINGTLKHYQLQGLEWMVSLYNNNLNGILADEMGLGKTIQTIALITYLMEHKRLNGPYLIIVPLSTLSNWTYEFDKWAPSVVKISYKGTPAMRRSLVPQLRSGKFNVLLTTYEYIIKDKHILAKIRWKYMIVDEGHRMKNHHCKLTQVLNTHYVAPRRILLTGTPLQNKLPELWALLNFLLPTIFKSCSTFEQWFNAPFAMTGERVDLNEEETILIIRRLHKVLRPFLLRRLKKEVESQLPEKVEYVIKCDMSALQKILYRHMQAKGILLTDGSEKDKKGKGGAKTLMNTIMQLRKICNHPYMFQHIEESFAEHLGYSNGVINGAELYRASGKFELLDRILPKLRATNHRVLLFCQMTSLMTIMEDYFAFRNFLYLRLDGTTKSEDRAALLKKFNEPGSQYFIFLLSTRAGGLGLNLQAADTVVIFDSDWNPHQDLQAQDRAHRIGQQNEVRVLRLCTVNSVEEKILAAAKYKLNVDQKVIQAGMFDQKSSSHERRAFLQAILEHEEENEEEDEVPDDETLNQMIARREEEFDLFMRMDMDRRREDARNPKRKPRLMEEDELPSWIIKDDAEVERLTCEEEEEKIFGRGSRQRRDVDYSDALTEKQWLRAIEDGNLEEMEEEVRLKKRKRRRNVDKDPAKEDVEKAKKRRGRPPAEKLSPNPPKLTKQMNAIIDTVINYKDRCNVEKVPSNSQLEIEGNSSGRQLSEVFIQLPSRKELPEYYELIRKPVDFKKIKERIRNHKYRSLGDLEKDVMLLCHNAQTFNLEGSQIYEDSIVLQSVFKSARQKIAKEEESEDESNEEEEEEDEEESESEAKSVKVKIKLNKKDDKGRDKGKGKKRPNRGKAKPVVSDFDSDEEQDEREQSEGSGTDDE
# [24] = THP-1 cell cytotoxicity, dose response, cytotoxicity control for non-replicating M. tuberculosis project (AID 489025); type: functional
# [25] = growth suppression of PTEN-null colon cells, dose response, cell-based, HCT116 PTEN knockout (AID 1047); type: functional;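 further: HCT116 colon tumor cells with PTEN knocked out; cells exposed to compound for 60 hours before readout; potency for loss of cell viability measured by luminescence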
# [26] = molecular target: Phosphoethanolamine/phosphocholine phosphatase (Homo sapiens, UniProt Q8TCT1); assay: SAR assay for compounds that inhibit PHOSPHO1. [Related pubchem assays (depositor defined):AID1545, AID1565, AID1574]
# Chain of Phosphoethanolamine/phosphocholine phosphatase (Q8TCT1 whole entry): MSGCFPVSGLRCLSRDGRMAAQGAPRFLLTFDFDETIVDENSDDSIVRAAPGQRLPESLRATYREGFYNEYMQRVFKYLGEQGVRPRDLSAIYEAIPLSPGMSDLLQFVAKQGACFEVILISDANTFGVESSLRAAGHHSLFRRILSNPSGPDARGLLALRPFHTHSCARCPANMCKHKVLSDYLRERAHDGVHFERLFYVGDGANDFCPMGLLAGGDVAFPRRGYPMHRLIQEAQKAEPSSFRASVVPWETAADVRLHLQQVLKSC
# Cytochrome P450 2C19 = Cytochrome P450 2C19 (Homo sapiens, UniProt P33261); assay: Cytochrome panel assay with activity outcomes. Panel member name: p450-cyp2c19 Compounds with AC50 equal or less than 10 uM are considered active; type: functional; conditions: read-out: AC50
# [27] = molecular target: DNA (cytosine-5)-methyltransferase 1 (Homo sapiens, UniProt P26358); assay: DNMT1 methyltransferase inhibitors, confirmation, biochemical, fluorescent molecular beacon (AID 602386); type: functional
# Caspase-3 = molecular target: T1, Caspase-3 (Homo sapiens, UniProt P42574); type: functional;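 further: Dose-response selectivity test against caspase-3 for candidate inhibitors of sentrin-specific proteases (SENPs)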
# T1 sequence (P42574 whole entry): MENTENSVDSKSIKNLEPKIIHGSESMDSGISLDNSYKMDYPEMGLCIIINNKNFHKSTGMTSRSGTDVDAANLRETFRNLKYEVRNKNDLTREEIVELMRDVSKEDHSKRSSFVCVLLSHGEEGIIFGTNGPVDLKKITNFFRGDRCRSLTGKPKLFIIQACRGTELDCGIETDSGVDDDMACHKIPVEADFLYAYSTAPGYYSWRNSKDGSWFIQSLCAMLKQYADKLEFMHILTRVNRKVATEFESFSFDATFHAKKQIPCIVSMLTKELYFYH
# [28] = molecular target: T2, Sentrin-specific protease 8 (Homo sapiens, UniProt Q96LD8); type: functional;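 further: luminescence read-out of SENP8 inhibition, dose-response confirmation following an ultra-high-throughput screen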
# T2 sequence (Q96LD8 whole entry): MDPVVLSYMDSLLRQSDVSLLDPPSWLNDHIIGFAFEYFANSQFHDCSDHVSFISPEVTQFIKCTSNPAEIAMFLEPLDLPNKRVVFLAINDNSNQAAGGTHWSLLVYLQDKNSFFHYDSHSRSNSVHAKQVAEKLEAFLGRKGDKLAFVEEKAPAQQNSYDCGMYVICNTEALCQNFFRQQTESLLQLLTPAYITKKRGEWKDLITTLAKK
# [29] = Artemis endonuclease inhibitor potency, dose response, biochemical, fluorescence intensity (AID 720701); type: functional;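 further: Artemis endonuclease enzyme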
# [30] = molecular target: NACHT, LRR and PYD domains-containing protein 3 (Homo sapiens, UniProt Q96P20); assay: NALP3 inhibitors in yeast, dose response, luminescent (AID 488799); type: functional
# INS1 = assay: beta cell apoptosis inhibitors, cytokine rescue, dose response, luminescence, retest (AID 449756); type: functional, cell-based; conditions: Rattus norvegicus;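 further: cell death triggered by IL-1 beta plus TNF-alpha plus IFN-gamma mixture; protective hits raise ATP signal compared with cytokine alone wells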
# HEK293 = assay: SAR Analysis of small molecule inhibitors of T-cell specific antigen receptor-induced NF-kB activation in a HEK-293T cell line using a luminescence assay. [Related pubchem assays (depositor defined):AID435003, AID435012, AID489026]; type: functional, cell-based; conditions: Homo sapiens
compound,measurement,setting,value
Cc1cccc(NC(=O)Nc2ccc3c(c2)CCc2sc4ncnc(N)c4c2-3)c1,Ki,LIM domain kinase 1,0.631 µM (active)
same,Ki,[1],> 7.94 µM (inactive)
same,Ki,[2],2.51 µM (active)
same,Ki,[3],1.26 µM (active)
same,Ki,[4],3.16 µM (active)
same,Ki,[5],> 7.94 µM (inactive)
same,Ki,[6],> 6.31 µM (inactive)
same,Ki,[7],> 10 µM (inactive)
same,Ki,[8],1.26 µM (active)
same,Ki,[9],> 7.94 µM (inactive)
same,Ki,[10],> 2 µM (inactive)
same,Ki,[11],> 3.98 µM (inactive)
same,Ki,[12],> 10 µM (inactive)
same,Ki,Misshapen-like kinase 1,> 7.94 µM (inactive)
same,Ki,[13],> 5.01 µM (inactive)
same,Ki,[14],> 1.58 µM (inactive)
same,Ki,[15],> 100 µM (inactive)
same,Ki,[16],0.126 µM (active)
same,Ki,[17],> 1.58 µM (inactive)
same,Ki,[18],> 2 µM (inactive)
same,Ki,Focal adhesion kinase 1,0.631 µM (active)
same,Ki,[19],> 10 µM (inactive)
same,Ki,[20],0.00631 µM (active)
same,Ki,[21],0.398 µM (active)
same,Ki,[22],0.2 µM (active)
Cc1ccc(-n2sc3ccccc3c2=O)cc1,EC50,[23],> 91.2 µM (inactive)
same,CC50,[24],18.6 µM (active)
same,EC50,[25],31.1 µM (active)
same,IC50,[26],2.28 µM (inactive) and 1.46 µM (inactive)
N/C(=N\N=C/c1ccc(-c2ccc(O)c(C(=O)O)c2)o1)N[N+](=O)[O-],AC50,Cytochrome P450 2C19,39.8 µM (inconclusive)
same,IC50,[27],3.94 µM (active)
CC(=O)N(/N=C1\Sc2ccccc2C1=O)c1ccccc1C,IC50,Caspase-3,42.2 µM (active)
same,IC50,[28],3.46 µM (active)
same,IC50,[29],7.4 µM (active)
same,IC50,[30],8.34 µM (active)
CCCC(=O)NC(c1ccc(Cl)cc1)c1ccc2cccnc2c1O (configuration not stated),AC50,INS1,0.458 µM (active)
same,IC50,HEK293,3.72 µM (active)
